ChEMBL document CHEMBL4818987, “Recent advances of podophyllotoxin/epipodophyllotoxin hybrids in anticancer activity, mode of action, and structure-activity relationship: An update (2010-2020)” (Eur J Med Chem, 2020)

Legend:
[1] = MRT in Sprague-Dawley rat at 2.5 mg/kg, iv measured after 5 to 1440 mins by LC-MS/MS analysis; type: ADME, organism-based; conditions: in vivo, time 5-1440 min
[2] = Terminal half life in Sprague-Dawley rat at 2.5 mg/kg, iv measured after 5 to 1440 mins by LC-MS/MS analysis; type: ADME, organism-based; conditions: in vivo, time 5-1440 min, read-out: beta t1/2 (converted)
[3] = Mean initial plasma concentration in Sprague-Dawley rat at 2.5 mg/kg, iv measured after 5 to 1440 mins by LC-MS/MS analysis; type: ADME, organism-based; conditions: rat, plasma, iv, time 5-1440 min, dose 2.5 mg/kg, read-out: C0
[4] = AUCinfinity in Sprague-Dawley rat at 2.5 mg/kg, iv measured after 5 to 1440 mins by LC-MS/MS analysis; type: ADME, organism-based; parameters: route intravenous, dose 2.5 mg/kg, time upper 1440 min, time lower 5 min; conditions: in vivo, 2.5 mg/kg
[5] = Plasma clearance in Sprague-Dawley rat at 2.5 mg/kg, iv measured after 5 to 1440 mins by LC-MS/MS analysis; type: ADME, organism-based; parameters: dose 2.5 mg/kg, time upper 1440 min, time lower 5 min; conditions: time 5-1440 min, dose 2.5 mg/kg
DU-145 = test: Antiproliferative activity against human DU145 cells by MTT assay; type: functional, cell-based
BGC-823 [6] = test: Potency index, ratio of etoposide IC50 to test compound IC50 for antiproliferative activity against human BGC-823 cells; type: functional
BGC-823 [7] = test: Antiproliferative activity against human BGC-823 cells incubated for 72 hrs by MTT assay; type: functional, cell-based; conditions: BGC-823, 72 h
MKN-45 [8] = test: Potency index, ratio of etoposide IC50 to test compound IC50 for antiproliferative activity against human MKN-45 cells; type: functional
MKN-45 [9] = test: Antiproliferative activity against human MKN-45 cells incubated for 72 hrs by MTT assay; type: functional, cell-based; conditions: Homo sapiens, MKN-45, 72 h
A549 [10] = test: Antiproliferative activity against human A549 cells by MTT assay; type: functional, cell-based
MCF7 [11] = test: Cytotoxicity against human MCF7 cells by MTT assay; type: functional, cell-based
HL-60 = test: Antiproliferative activity against human HL-60 cells by MTT assay; type: functional, cell-based
SMMC-7721 = test: Antiproliferative activity against human SMMC-7721 cells by MTT assay; type: functional, cell-based
SW480 = test: Antiproliferative activity against human SW480 cells by MTT assay; type: functional, cell-based
HeLa = test: Cytotoxicity against human HeLa cells incubated for 24 hrs by CCK8 assay; type: functional, cell-based
[12] = Cytotoxicity against PBMC (unknown origin) incubated for 24 hrs by CCK8 assay
L02 = test: Cytotoxicity against human L02 cells incubated for 24 hrs by CCK8 assay; type: functional, cell-based; conditions: L02, 24 h
A549 [13] = test: Cytotoxicity against human A549 cells incubated for 24 hrs by CCK8 assay; type: functional, cell-based; conditions: A549, 24 h
MCF7 [14] = test: Cytotoxicity against human MCF7 cells incubated for 24 hrs by CCK8 assay; type: functional, cell-based; conditions: MCF7, 24 h
HepG2 = test: Cytotoxicity against human HepG2 cells incubated for 24 hrs by CCK8 assay; type: functional, cell-based; conditions: HepG2, 24 h

COc1cc([C@@H]2c3cc4c(cc3[C@@H](NCC(F)(F)[C@]3(O)O[C@H](CO)[C@@H](O)[C@H](O)[C@H]3O)[C@H]3COC(=O)[C@H]23)OCO4)cc(OC)c1OC
MRT [1]: 16.2 min
half-life [2]: 67.8 min
C0 [3]: 8780 ng/mL
AUC(0-inf) [4]: 2210 ng·h/mL
clearance [5]: 19 mL/min/kg

COc1cc([C@@H]2c3cc4c(cc3[C@@H](OCc3cn([C@@H]5O[C@H](COC(C)=O)[C@@H](OC(C)=O)[C@H](OC(C)=O)[C@H]5OC(C)=O)nn3)[C@H]3COC(=O)[C@H]23)OCO4)cc(OC)c1OC
IC50 (DU-145): 1020 nM

COc1cc([C@@H]2c3cc4c(cc3[C@H](OC(=O)/C=C(C)/C=C/C=C(C)/C=C/C3=C(C)CCCC3(C)C)[C@H]3COC(=O)[C@H]23)OCO4)cc(OC)c1OC
Ratio IC50 (BGC-823 [6]): 6.8
IC50 (BGC-823 [7]): 202 nM
Ratio IC50 (MKN-45 [8]): 6.8
IC50 (MKN-45 [9]): 419 nM

COc1cc([C@@H]2c3cc4c(cc3[C@@H](n3cc(CO[C@@H]5O[C@H](CO[C@@H]6O[C@H](CO)[C@@H](O)[C@H](O)[C@H]6O)[C@@H](O)[C@H](O)[C@H]5O)nn3)[C@H]3COC(=O)[C@H]23)OCO4)cc(OC)c1OC
IC50 (A549 [10]): 670 nM
IC50 (MCF7 [11]): 670 nM
IC50 (HL-60): 670 nM
IC50 (SMMC-7721): 670 nM
IC50 (SW480): 670 nM

COc1cc([C@@H]2c3cc4c(cc3[C@H](OC(=O)c3c[nH]c5ccccc35)[C@H]3COC(=O)[C@H]23)OCO4)cc(OC)c1OC
IC50 (HeLa): 1930 nM
IC50 [12]: 75600 nM
IC50 (L02): 88900 nM
IC50 (A549 [13]): 1930 nM
IC50 (MCF7 [14]): 1930 nM
IC50 (HepG2): 1930 nM
